≈ marks a conversion by molar mass, not a printed value. Calls of active or inactive are those of the source. The rule behind the calls is not given here.
Assays:
[1] = tested on: HCT-116; experiment: Antiproliferative activity against human HCT116 cells after 72 hrs by MTS assay; format: functional; settings: Homo sapiens, HCT-116, 72 h
[2] = biological target: Histone deacetylase 1 (Homo sapiens) (UniProt Q13547); experiment: Inhibition of human recombinant HDAC1 at 10^-5 M after 15 mins using fluorogenic substrate by fluorimetric assay relative to control
Sequence of Histone deacetylase 1 (Homo sapiens) (Q13547 whole entry): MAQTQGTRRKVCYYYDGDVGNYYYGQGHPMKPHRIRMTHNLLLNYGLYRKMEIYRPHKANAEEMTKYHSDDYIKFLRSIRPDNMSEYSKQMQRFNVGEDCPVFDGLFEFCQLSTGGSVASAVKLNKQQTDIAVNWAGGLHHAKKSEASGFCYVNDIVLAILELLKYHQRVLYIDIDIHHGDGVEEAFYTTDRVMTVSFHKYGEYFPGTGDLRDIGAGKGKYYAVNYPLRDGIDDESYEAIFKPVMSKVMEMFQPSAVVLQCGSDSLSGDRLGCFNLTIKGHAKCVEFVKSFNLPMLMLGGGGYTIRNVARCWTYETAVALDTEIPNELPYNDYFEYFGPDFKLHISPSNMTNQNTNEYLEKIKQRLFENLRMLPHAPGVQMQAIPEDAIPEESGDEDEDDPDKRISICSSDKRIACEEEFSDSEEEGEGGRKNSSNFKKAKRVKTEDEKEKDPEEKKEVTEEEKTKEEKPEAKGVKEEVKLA

[3] = biological target: T1, Protein deacetylase HDAC6 (Homo sapiens) (UniProt Q9UBN7); experiment: Inhibition of human recombinant HDAC6 at 10^-5 M after 30 mins using fluorogenic substrate by fluorimetric assay relative to control
T1 sequence (whole entry): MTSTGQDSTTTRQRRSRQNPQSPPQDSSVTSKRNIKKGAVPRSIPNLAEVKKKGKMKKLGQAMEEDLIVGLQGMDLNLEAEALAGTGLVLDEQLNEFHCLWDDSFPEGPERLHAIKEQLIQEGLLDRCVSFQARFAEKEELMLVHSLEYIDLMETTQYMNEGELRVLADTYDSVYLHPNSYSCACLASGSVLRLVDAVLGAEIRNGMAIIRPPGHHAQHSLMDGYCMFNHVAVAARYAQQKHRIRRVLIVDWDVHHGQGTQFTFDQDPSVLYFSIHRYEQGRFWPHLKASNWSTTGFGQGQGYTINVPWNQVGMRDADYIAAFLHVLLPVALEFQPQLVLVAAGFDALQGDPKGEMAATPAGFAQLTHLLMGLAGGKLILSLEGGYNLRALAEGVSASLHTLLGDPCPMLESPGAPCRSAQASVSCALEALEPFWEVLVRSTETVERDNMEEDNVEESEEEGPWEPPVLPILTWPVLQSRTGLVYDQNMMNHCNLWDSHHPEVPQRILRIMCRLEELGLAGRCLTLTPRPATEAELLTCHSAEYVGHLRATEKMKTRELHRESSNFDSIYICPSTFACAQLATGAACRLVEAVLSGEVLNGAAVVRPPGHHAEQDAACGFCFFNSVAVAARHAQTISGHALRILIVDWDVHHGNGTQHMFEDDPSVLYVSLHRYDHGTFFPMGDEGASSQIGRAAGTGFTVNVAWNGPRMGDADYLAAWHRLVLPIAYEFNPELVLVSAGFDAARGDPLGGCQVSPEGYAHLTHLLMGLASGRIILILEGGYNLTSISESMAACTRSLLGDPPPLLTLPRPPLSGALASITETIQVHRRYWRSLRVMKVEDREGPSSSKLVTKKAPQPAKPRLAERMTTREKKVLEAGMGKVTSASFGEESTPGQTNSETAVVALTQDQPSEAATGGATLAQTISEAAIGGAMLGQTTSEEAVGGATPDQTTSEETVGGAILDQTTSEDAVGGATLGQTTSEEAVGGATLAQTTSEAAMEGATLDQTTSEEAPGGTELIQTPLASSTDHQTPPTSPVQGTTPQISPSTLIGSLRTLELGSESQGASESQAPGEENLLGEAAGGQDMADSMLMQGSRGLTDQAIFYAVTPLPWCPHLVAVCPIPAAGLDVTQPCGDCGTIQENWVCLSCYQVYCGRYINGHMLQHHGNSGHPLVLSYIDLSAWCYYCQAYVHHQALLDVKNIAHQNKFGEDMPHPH

[4] = biological target: Histone deacetylase 9 (Homo sapiens) (UniProt Q9UKV0); experiment: Inhibition of human recombinant HDAC9 at 10^-5 M after 30 mins using fluorogenic substrate by fluorimetric assay relative to control
Sequence of Histone deacetylase 9 (Homo sapiens) (Q9UKV0 whole entry): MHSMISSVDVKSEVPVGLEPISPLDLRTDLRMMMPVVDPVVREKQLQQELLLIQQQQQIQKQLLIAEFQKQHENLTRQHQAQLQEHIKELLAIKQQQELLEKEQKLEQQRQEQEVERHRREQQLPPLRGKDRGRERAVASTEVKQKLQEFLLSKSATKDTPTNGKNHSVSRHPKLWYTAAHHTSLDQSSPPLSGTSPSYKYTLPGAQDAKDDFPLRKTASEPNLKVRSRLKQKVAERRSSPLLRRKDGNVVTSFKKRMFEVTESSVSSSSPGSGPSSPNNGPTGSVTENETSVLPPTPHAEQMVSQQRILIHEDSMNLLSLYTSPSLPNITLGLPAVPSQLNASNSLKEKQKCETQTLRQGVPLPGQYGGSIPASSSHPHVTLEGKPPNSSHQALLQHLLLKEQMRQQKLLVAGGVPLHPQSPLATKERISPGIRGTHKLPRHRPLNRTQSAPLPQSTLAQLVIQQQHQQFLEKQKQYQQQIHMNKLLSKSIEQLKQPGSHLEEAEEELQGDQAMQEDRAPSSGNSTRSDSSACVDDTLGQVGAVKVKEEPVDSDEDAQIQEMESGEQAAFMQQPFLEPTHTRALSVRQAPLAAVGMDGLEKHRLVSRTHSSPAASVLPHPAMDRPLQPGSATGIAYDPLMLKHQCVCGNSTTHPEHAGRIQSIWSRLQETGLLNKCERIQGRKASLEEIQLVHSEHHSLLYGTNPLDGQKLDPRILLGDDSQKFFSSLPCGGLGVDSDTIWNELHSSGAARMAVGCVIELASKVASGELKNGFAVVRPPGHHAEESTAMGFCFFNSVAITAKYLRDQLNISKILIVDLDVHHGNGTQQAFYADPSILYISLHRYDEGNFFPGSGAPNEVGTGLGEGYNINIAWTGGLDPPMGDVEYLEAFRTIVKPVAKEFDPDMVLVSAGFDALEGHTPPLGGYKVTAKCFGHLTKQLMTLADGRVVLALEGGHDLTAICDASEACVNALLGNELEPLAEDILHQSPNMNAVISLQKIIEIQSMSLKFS

[5] = biological target: Histone deacetylase 11 (Homo sapiens) (UniProt Q96DB2); experiment: Inhibition of human recombinant HDAC11 at 10^-5 M after 45 mins using fluorogenic substrate by fluorimetric assay relative to control
Sequence of Histone deacetylase 11 (Homo sapiens) (Q96DB2 whole entry): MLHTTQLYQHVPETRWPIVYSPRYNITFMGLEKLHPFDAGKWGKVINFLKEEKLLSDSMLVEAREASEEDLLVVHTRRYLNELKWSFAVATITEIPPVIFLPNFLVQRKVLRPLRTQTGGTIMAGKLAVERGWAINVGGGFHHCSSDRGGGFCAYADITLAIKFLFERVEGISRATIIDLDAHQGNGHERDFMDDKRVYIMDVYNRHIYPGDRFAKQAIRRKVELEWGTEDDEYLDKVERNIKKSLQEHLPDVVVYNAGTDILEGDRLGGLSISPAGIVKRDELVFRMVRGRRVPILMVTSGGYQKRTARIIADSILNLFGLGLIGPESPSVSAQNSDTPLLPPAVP

[6] = biological target: T2, Histone deacetylase 8 (Homo sapiens, UniProt Q9BY41); experiment: Inhibition of human recombinant HDAC8 after 30 mins using fluorogenic substrate by fluorimetric assay
T2 sequence (Q9BY41 whole entry): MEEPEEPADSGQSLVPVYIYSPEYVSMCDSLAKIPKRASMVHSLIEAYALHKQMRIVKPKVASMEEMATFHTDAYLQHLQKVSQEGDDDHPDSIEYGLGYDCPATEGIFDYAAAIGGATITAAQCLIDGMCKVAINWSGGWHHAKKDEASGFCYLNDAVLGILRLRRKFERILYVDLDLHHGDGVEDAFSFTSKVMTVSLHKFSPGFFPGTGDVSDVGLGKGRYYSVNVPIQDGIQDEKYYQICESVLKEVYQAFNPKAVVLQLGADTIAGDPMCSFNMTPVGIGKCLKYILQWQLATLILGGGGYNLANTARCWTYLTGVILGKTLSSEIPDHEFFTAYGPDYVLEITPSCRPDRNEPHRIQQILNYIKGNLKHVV

[7] = tested on: A549; experiment: Antiproliferative activity against human A549 cells after 72 hrs by MTS assay; format: functional; settings: Homo sapiens, A549, 72 h
[8] = Induction of apoptosis in human BL2 cells assessed as late apoptotic cells at 10 nM after 48 hrs by annexin V-FITC/propidium iodide double staining-based flow cytometry (reference value: 2.1%); format: functional
[9] = tested on: PBL; experiment: Cytotoxicity against human PBL cells assessed as cell growth inhibition after 72 hrs by MTS assay; format: ADME, cell-based
[10] = Aqueous solubility of the compound; format: physicochemical; settings: water
[11] = tested on: HT-29; experiment: Antiproliferative activity against human HT-29 cells in presence of TSA after 72 hrs by MTS assay relative to control; format: functional, cell-based; settings: HT-29, 72 h
[12] = biological target: T3, Protein deacetylase HDAC6 (Homo sapiens, UniProt Q9UBN7)
T3 sequence (Q9UBN7 whole entry): T1 sequence (whole entry)
Description: Inhibition of human recombinant HDAC6 after 30 mins using fluorogenic substrate by fluorimetric assay

[13] = biological target: T4, Histone deacetylase (Homo sapiens) (UniProt Q13547+O15379+Q9UBN7+Q92769+Q9UQL6+Q8WUI4+Q9BY41+Q96DB2+P56524+Q9UKV0+Q969S8); experiment: Inhibition of HDAC in human HT-29 cells assessed as phosphorylated gamma-H2AX levels at 80 nM after 3 days by Western blot analysis relative to control; format: cell-based
[14] = biological target: T4, Histone deacetylase (Homo sapiens); experiment: Inhibition of HDAC in human HT-29 cells assessed as gamma-H2AX phosphorylation after 3 days by Western blot analysis; format: cell-based
[15] = biological target: T5, Histone deacetylase 8 (Homo sapiens) (UniProt Q9BY41); experiment: Inhibition of HDAC8 in human HT-29 cells assessed as acetylated SMC3 levels at 25 uM after 6 hrs by Western blot analysis relative to control; format: cell-based
T5 sequence (whole entry): T2 sequence (Q9BY41 whole entry)

[16] = biological target: T5, Histone deacetylase 8 (Homo sapiens); experiment: Inhibition of HDAC8 in human HT-29 cells assessed as acetylated SMC3 levels at 25 uM after 24 hrs by Western blot analysis relative to control; format: cell-based
[17] = biological target: Tubulin (Homo sapiens) (UniProt P68371+Q9H4B7+P0DPH7+P68366+Q13509+Q71U36+P04350+Q3ZCM7+P07437+P68363+Q9BQE3+Q6PEY2+Q13885+Q9BVA1+Q9BUF5); experiment: Inhibition of tubulin polymerization in human K562 cells assessed as multinucleation at 10 nM after 24 hrs by DAPI-staining based inverted microscopy; format: cell-based
[18] = tested on: K-562R; experiment: Potency index, ratio of IC50 for isoCA4 to IC50 for test compound for antiproliferative activity against human K562R cells after 72 hrs by MTS assay; format: functional
[19] = tested on: HT-29; experiment: Potency index, ratio of IC50 for TSA to IC50 for test compound for antiproliferative activity against human HT-29 cells after 72 hrs by MTS assay; format: functional

| fold change (FC) [13] | inhibition [14] | fold change (FC) [15] | fold change (FC) [16] | Activity [17] | Compound | GI50 [1] [nM] | inhibition [2] | inhibition [3] | inhibition [4] | inhibition [5] | IC50 [6] | GI50 [7] [nM] | Activity [8] [%] | IC50 [9] [nM] | solubility [10] [µg/mL] | IC50 [11] [nM] | IC50 [12] | Ratio IC50 [18] | Ratio IC50 [19] |
| --- | --- | --- | --- | --- | --- | --- | --- | --- | --- | --- | --- | --- | --- | --- | --- | --- | --- | --- | --- |
| – | – | – | – | – | C=C(c1ccc(OC)c(O)c1)c1cc(OC)c(OC)c(OC)c1 | 2 | inactive | inactive | inactive | inactive | Not Active | 10 | 14.3 | 1700 | 11.6 (≈ 36.7 µM) | 3.8 | Not Active | – | – |
| 14.2 | Dose-dependent effect | 3.2 | 5.4 | Active | C=C(c1ccc(OC)c(/C=C/C(=O)NO)c1)c1cc(OC)c(OC)c(OC)c1 | 1.5 | < 50% | < 50% | < 50% | 60% | – | 1.7 | 13.7 | 7000 | 69.3 (≈ 180 µM) | – | – | 2 | 17 |
